Experimental data: ChEMBL document CHEMBL1201862, “PubChem BioAssay data set” (2004)
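96-well plates; 48 h exposure; 5 concentrations. Endpoints by linear interpolation between flanking doses. Not reached: highest tested concentration assigned. GI50 marks 50% less growth.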 Activity calls are given as the source filed them. No stated cut-off is given here; in the data, active = GI50 up to about 1.1 µM and inactive = higher.

Legend:
Experiment in all cases: NCI-60 cell line screen, 48 h
M14 = test system: M14
OVCAR-5 = test system: OVCAR-5
SK-OV-3 = test system: SK-OV-3
HCT-116 = test system: HCT-116
OVCAR-8 = test system: OVCAR-8
SF-295 = test system: SF-295
UO-31 = test system: UO-31
SNB-19 = test system: SNB-19
Malme-3M = test system: Malme-3M
NCI-H460 = test system: NCI-H460
UACC-62 = test system: UACC-62
IGROV-1 = test system: IGROV-1
HOP-62 = test system: HOP-62
ACHN = test system: ACHN
TK-10 = test system: TK-10
SF-268 = test system: SF-268
UACC-257 = test system: UACC-257
KM12 = test system: KM12
EKVX = test system: EKVX
SR = test system: SR

Compound | GI50 (M14) | GI50 (OVCAR-5) | GI50 (SK-OV-3) | GI50 (HCT-116) | GI50 (OVCAR-8) | GI50 (SF-295) | GI50 (UO-31) | GI50 (SNB-19) | GI50 (Malme-3M) | GI50 (NCI-H460) | GI50 (UACC-62) | GI50 (IGROV-1) | GI50 (HOP-62) | GI50 (ACHN) | GI50 (TK-10) | GI50 (SF-268) | GI50 (UACC-257) | GI50 (KM12) | GI50 (EKVX) | GI50 (SR)
O=c1c2cn[nH]c2nc2scc(-c3ccc(Cl)cc3)n12 | > 100 µM (inactive) | > 100 µM (inactive) | > 100 µM (inactive) | > 100 µM (inactive) | > 100 µM (inactive) | > 100 µM (inactive) | > 100 µM (inactive) | > 100 µM (inactive) | > 100 µM (inactive) | > 100 µM (inactive) | > 100 µM (inactive) | > 100 µM (inactive) | > 100 µM (inactive) | > 100 µM (inactive) | > 100 µM (inactive) | > 100 µM (inactive) | > 100 µM (inactive) | > 100 µM (inactive) | > 100 µM (inactive) | > 100 µM (inactive)
C[C@]12CC[C@H](O)CC1=CC[C@@H]1[C@@H]2CC[C@]2(C)NC(=O)/C(=C\c3ccccc3)C[C@@H]12 | 15.8 µM (inactive) | 14.5 µM (inactive) | 18.9 µM (inactive) | 14.2 µM (inactive) | 21.1 µM (inactive) | 16.5 µM (inactive) | 12.9 µM (inactive) | 14.7 µM (inactive) | 15.8 µM (inactive) | 23.9 µM (inactive) | 18.3 µM (inactive) | 15.9 µM (inactive) | 13.5 µM (inactive) | 17.4 µM (inactive) | 28.2 µM (inactive) | 15.5 µM (inactive) | 23.3 µM (inactive) | 14.5 µM (inactive) | 14 µM (inactive) | 28.7 µM (inactive)
[O-]/[N+](=C\c1ccccc1OC(=S)S)c1ccc(Cl)cc1 | 24.2 µM (inactive) | 21.2 µM (inactive) | > 100 µM (inactive) | 10.1 µM (inactive) | 8.24 µM (inactive) | 0.177 µM (active) | 19.8 µM (inactive) | 83.4 µM (inactive) | > 100 µM (inactive) | 0.292 µM (active) | 11.9 µM (inactive) | 12.1 µM (inactive) | 47.9 µM (inactive) | 20.6 µM (inactive) | > 100 µM (inactive) | 19.5 µM (inactive) | 21.5 µM (inactive) | 26.7 µM (inactive) | 25.7 µM (inactive) | 21.8 µM (inactive)
CCOC(=O)c1nc2ccccc2nc1Nc1ccc(F)cc1 | > 100 µM (inactive) | > 59.3 µM (inactive) | 11.7 µM (inactive) | 20.3 µM (inactive) | 11.5 µM (inactive) | 12.9 µM (inactive) | > 94.4 µM (inactive) | 12.1 µM (inactive) | > 100 µM (inactive) | 51.6 µM (inactive) | > 100 µM (inactive) | 13.7 µM (inactive) | 15.8 µM (inactive) | 27.5 µM (inactive) | 30.6 µM (inactive) | 8.39 µM (inactive) | > 100 µM (inactive) | > 100 µM (inactive) | 16.5 µM (inactive) | > 100 µM (inactive)
NC(CCCNc1ccc(O)cc1)C(=O)O (stereo not given) | 31.8 µM (inactive) | > 100 µM (inactive) | > 100 µM (inactive) | 18.2 µM (inactive) | 33.7 µM (inactive) | > 100 µM (inactive) | > 60 µM (inactive) | > 100 µM (inactive) | > 56.1 µM (inactive) | > 59.6 µM (inactive) | 18.5 µM (inactive) | 26.4 µM (inactive) | > 80.2 µM (inactive) | 26 µM (inactive) | > 63.2 µM (inactive) | 42.8 µM (inactive) | 27.8 µM (inactive) | 49.2 µM (inactive) | 38.8 µM (inactive) | 25.3 µM (inactive)
